According to US7374905B2, “Medium composition, method and device for selectively enhancing the isolation of anaerobic microorganisms contained in a mixed sample with facultative microorganisms” (Oxyrase, Inc., priority 2000, dated 2008):

Assays:
[1] = tested on: P. anaerobius mixed with E. coli and P. mirabilis; type: cell-based
[2] = tested on: B. fragilis mixed with E. coli and P. mirabilis; type: cell-based
[3] = tested on: Peptostreptococcus anaerobius; conditions: 48 hours, cultures of Table 4
[4] = tested on: C. perfringens mixed with E. coli and P. mirabilis; type: cell-based
Fusobacterium nucleatum = conditions: 48 hours, cultures of Table 4
[5] = tested on: F. nucleatum mixed with E. coli and P. mirabilis; type: cell-based
[6] = tested on: P. levii mixed with E. coli and P. mirabilis; type: cell-based

Compound: [N-]=[N+]=[N-] [Azide, sodium azide]
- Concentration of azide at which swarming is inhibited (Proteus mirabilis): above 0.1 mg/ml
- Lowest concentration of azide in the tube that successfully separated the anaerobe [1]: 0.1 mg/mL
- Lowest concentration of azide in the tube that successfully separated the anaerobe [2]: 0.2 mg/mL
- Level of growth (below visible turbidity) [3]: less than 10^7 CFU/ml
- Concentration of azide that inhibited growth in anoxic broth (Escherichia coli): ≤ 0.1 mg/mL
- Lowest concentration of azide in the tube that successfully separated the anaerobe [4]: 0.1 mg/mL
- Level of growth (below visible turbidity) (Fusobacterium nucleatum): less than 10^7 CFU/ml
- Lowest concentration of azide in the tube that successfully separated the anaerobe [5]: 0.1 mg/mL
- Lowest concentration of azide in the tube that successfully separated the anaerobe [6]: 0.1 mg/mL
